{
  "source": "ChEMBL document CHEMBL2074063",
  "about": "“P-glycoprotein-mediated efflux of hydroxyrubicin, a neutral anthracycline derivative, in resistant K562 cells” (FEBS Lett, 1994)",
  "molecular_target": "ABCB1 (P-glycoprotein) (Homo sapiens, UniProt P08183)",
  "sequence (P08183 whole entry)": "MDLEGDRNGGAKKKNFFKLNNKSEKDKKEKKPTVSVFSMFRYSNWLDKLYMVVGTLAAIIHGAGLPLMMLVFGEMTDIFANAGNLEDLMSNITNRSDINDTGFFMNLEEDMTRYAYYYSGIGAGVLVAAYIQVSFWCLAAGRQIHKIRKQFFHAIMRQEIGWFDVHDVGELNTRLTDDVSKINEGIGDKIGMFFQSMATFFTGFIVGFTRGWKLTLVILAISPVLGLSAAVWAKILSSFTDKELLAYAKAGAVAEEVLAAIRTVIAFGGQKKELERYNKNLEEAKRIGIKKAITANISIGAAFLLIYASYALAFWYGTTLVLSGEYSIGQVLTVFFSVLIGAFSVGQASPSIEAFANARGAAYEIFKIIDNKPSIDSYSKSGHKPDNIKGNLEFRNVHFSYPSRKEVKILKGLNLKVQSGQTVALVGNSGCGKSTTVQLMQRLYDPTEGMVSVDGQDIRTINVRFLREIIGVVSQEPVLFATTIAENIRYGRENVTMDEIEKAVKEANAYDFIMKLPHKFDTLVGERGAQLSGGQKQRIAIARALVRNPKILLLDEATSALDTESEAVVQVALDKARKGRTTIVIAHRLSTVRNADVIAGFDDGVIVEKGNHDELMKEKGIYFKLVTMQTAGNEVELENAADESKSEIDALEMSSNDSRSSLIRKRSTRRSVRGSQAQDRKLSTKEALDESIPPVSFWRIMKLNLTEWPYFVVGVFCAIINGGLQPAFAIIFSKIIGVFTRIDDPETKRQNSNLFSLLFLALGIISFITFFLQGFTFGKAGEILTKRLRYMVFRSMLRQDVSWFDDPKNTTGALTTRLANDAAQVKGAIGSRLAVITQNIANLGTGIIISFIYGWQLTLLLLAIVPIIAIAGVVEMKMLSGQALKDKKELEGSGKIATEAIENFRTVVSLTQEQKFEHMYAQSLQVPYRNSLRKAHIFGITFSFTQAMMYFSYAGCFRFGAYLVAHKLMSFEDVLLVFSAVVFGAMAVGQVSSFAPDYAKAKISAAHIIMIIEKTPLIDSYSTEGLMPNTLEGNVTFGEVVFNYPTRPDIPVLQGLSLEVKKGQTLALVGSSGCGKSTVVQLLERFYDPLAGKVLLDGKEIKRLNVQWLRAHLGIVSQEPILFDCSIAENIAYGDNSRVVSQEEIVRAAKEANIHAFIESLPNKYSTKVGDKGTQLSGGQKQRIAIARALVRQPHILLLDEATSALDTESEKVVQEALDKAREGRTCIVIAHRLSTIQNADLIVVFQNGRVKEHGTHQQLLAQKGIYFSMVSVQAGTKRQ",
  "test": "TP_TRANSPORTER: efflux in Doxorubicin resistant K562 cells",
  "data": [
    {"smiles": "COc1cccc2c1C(=O)c1c(O)c3c(c(O)c1C2=O)C[C@@](O)(C(=O)CO)C[C@@H]3O[C@H]1C[C@H](O)[C@H](O)[C@H](C)O1", "note": "[HYDROXYRUBICIN]", "values": [
      {"measurement": "Km", "value": 2, "unit": "µM"}
    ]}
  ]
}
